“Also recorded” adds a separate entry of the source. Where a name gives a salt, the structure may show the parent alone.

The first assay has as its system MAFA. Nature of the assay: Small molecule screen: qRT-PCR of MAFA expression at Stage 7 in H1-hESC-derived ALI clusters. It counts as cell-based, human. Conditions: 2 μM small molecule added at Stage 7; S7D7 ALI clusters; quantitative real-time PCR; FIGS. 1A-1D. The method, then:
(§1) The following example is directed to identification of small molecules that can enhance the maturation status of a pancreatic beta cell, via increasing the gene expression of mature beta cell markers including MAFA (v-maf avian musculoaponeurotic fibrosarcoma oncogene homolog A) or UCN3 (urocortin 3). […] Y-compound was added to only during the first 24 hours post-seeding.
(§2) For FIGS. 1A to 1H the cultures were differentiated using the following protocol.
(§3) In general, the embodiments herein differentiate human pluripotent cells substantially as described above in Stages 1-7. For Stage 7, various small molecules were added and their effect was evaluated by quantitative real-time PCR. These small molecules were evaluated and 2 μM of each was added at Stage7.
(§4) Primer details are outlined in Table III.
With `COc1cc2c(cc1OCCCN1CCCC1)N=C(N)C21CCC1` [A366], the “expression of MAFA as compared to S6D7, or untreated or DMSO treated cultures at Stage 7” value (“expression of MAFA as compared to S6D7” for short) was “significantly upregulated”.
In the case of `O=c1cc(N2CCNCC2)oc2c(-c3ccccc3)cccc12` [LY303511], the “expression of MAFA as compared to S6D7” value is “significantly upregulated”.
Still for that read-out and setting: under `Cn1c(/C=C/C(=O)NO)ccc1/C=C/C(=O)c1cccc(F)c1` [MC1568] stands “significantly upregulated”.
On the same count and under the same terms, under `Cc1cc(/N=N/c2ccc(S(=O)(=O)Nc3ccccn3)cc2)c(N)cc1O` [MS436] stands “significantly upregulated”; under `CC(=O)NCC(=O)N1[C@@H]2CC[C@H]1c1ccc(Nc3ncc(C(F)(F)F)c(NC4CCC4)n3)cc12` [PF03814735], “significantly upregulated”.
On the same count and under the same terms, under `COc1ccccc1S(=O)(=O)Nc1ccc2c(c1)CN(C)C(=O)N2` [PFI1] stands “significantly upregulated”.
Regarding `CCn1c(-c2nonc2N)nc2cncc(CNC3CCNCC3)c21` [SB747651A dihydrochloride], the “expression of MAFA as compared to S6D7” value is on record as “significantly upregulated”.
In the case of `O=C(CCl)Nc1ccc(S(=O)(=O)c2ccc(NC(=O)CCl)cc2)cc1` [TC-E5003], the “expression of MAFA as compared to S6D7” value is listed as “significantly upregulated”.
Take `COc1cc2c(NC3CCN(C(C)C)CC3)nc(C3CCCCC3)nc2cc1OCCCN1CCCC1` [UNC0638]: the “expression of MAFA as compared to S6D7” value is given as “significantly upregulated”.
Consider `COc1cc2c(NC3CCN(C(C)C)CC3)nc(N3CCC(F)(F)CC3)nc2cc1OCCCN1CCCC1` [UNC0642], for which the “expression of MAFA as compared to S6D7” value is reported as “significantly upregulated”.
In the case of `COc1cc2c(NC3CCN(C4CCCCC4)CC3)nc(N3CCCN(C(C)C)CC3)nc2cc1OCCCN1CCCCC1` [UNC0646], the “expression of MAFA as compared to S6D7” value is “significantly upregulated”.
Still for that read-out and setting: with `COc1cc2c(Nc3ccc(NC(=O)c4ccccc4)cc3)ncnc2cc1OCCCN1CCOCC1` [ZM447439] the entry was “significantly upregulated”.

A further assay concerns UCN3. Nature of the assay: Small molecule screen: qRT-PCR of UCN3 expression at Stage 7 in H1-hESC-derived ALI clusters. Type of assay: cell-based, human. Conditions: 2 μM small molecule added at Stage 7; S7D7 ALI clusters; quantitative real-time PCR; FIGS. 1E-1H. The method, then: as §1, §2, §3, §4
For `Nc1ncn([C@@H]2O[C@H](CO)[C@@H](O)[C@H]2O)c(=O)n1` [5-Azacytidine], the “expression of UCN3 as compared to S6D7, or untreated or DMSO treated cultures at Stage 7” value is listed as “significantly upregulated; also recorded: increased”.
On the same count and under the same terms, under `CC(=O)Nc1ccc(C(=O)Nc2ccccc2N)cc1` [CI994] stands “significantly upregulated; also recorded: increased”; under `O=C(CCCCCCC(=O)Nc1cccnc1)NO` [Pyroxamide], “significantly upregulated; also recorded: increased”.

Still in this assay, the particulars now being: Stage 7 no ALK5, low T3, ZM, H, NAC, FI, BLAR001; 5 μM AZT; 1 μM or 10 μM DEZA; S7D7 ALI clusters; FIG. 2B.
Consider `Nc1nccc2c1ncn2[C@@H]1C=C(CO)[C@@H](O)[C@H]1O` [3-Deazaneplanocin A], for which the “UCN3 up-regulation during Stage 7” value was “but not UCN3”.
`Nc1ncn([C@@H]2O[C@H](CO)[C@@H](O)[C@H]2O)c(=O)n1` [5-Azacytidine]: the “UCN3 up-regulation during Stage 7” value is given as “up-regulator”.

In a further assay the test system is MAFA or UCN3. The assay is described as follows: Small molecule screen at Stage 7: induction of MAFA or UCN3 expression. Conditions: Stage 7 at 20 mM D-glucose plus BME Vitamin supplement; 79 small molecules of Table XI. It counts as cell-based, human. The method, then: as §1, §2
In general, the embodiments herein differentiate human pluripotent cells substantially as described above in Stages 1-7. For Stage 7, various small molecules were added and their effect was evaluated by quantitative real-time PCR. […] These small molecules were evaluated and 2 μM of each was added at Stage7.
as §4
With `Nc1ncn([C@@H]2O[C@H](CO)[C@@H](O)[C@H]2O)c(=O)n1` [5-Azacytidine], the “expression of the MAFA or UCN3” value is recorded as “induced expression”.
On the same count and under the same terms, under `CC1=NN(c2ccc(C(=O)O)cc2)C(=O)C1=Cc1ccc(-c2cc(C)c(C)cc2[N+](=O)[O-])o1` [C646] stands “induced expression”; under `O=C(O[C@@H]1Cc2c(O)cc(O)cc2O[C@@H]1c1cc(O)c(O)c(O)c1)c1cc(O)c(O)c(O)c1` [EGCG], “induced expression”.
On the same count and under the same terms, under `O=c1c(O)c(-c2ccc(O)c(O)c2)oc2cc(O)ccc12` [Fisetin] stands “induced expression”; under `COc1ccc(S(=O)(=O)ON=C2C=C(C)C(=O)C(C)=C2)cc1` [L002], “induced expression”; under `Nc1nc(OCc2cc(Br)cs2)c2[nH]cnc2n1` [Lomeguatrib], “induced expression”.
Take `O=C1c2c(O)ccc(O)c2C(=O)c2c(NCCNCCO)ccc(NCCNCCO)c21` [Mitoxantrone dihydrochloride]: the “expression of the MAFA or UCN3” value is on record as “induced expression”.
Same read-out and setting: with `CC(C)N(CCCNC(=O)Nc1ccc(C(C)(C)C)cc1)C[C@H]1O[C@@H](n2cc(Br)c3c(N)ncnc32)[C@H](O)[C@@H]1O` [SGC0946] the entry was “induced expression”.
Same read-out and setting: with `Cc1cc(Nc2ccc(NC(=O)c3ccc(Nc4ccnc5ccccc45)cc3)cc2)nc(N)n1` [SGI 1027] the entry was “induced expression”; with `Cn1nnc2c(C(N)=O)ncn2c1=O` [Temozolomide], “induced expression”.
On the same count and under the same terms, under `O=c1ncccn1[C@@H]1O[C@H](CO)[C@@H](O)[C@H]1O` [Zebularine] stands “induced expression”.

The test system of the next assay is human islets. The assay is described as follows: Glucose-stimulated insulin secretion (perifusion, C-PEPTIDE ELISA). Type of assay: cell-based. Conditions: 16.7 mM D-glucose ± 100 ng/ml Exendin-4, FIG. 8D. The method, then: For quantification of glucose-dependent insulin secretion, Stage 7 ALI clusters, Aggrewell™ clusters and matured human islets were characterized by a cell perifusion system (BioRep Technologies, Miami, Fla., Catalog No. PERI4-02). Briefly, to normalize insulin secretion to a baseline, ALI/Aggrewell™ clusters or human islets were transferred into warm (37° C.) Kreb's Buffer (Table IX). Cells were loaded into perifusion chambers (BioRep Technologies, Catalog No. PERI-CHAMBER), and were continuously perfused (flow rate of 100 μl/min) with […] sequential Kreb's buffers supplemented with either: (i) 3 mM D-glucose; (ii) 16.7 mM D-glucose±100 ng/ml Exendin-4 (“Ex4”); and (iii) 25 mM KCl with 3 mM D-glucose. Specific perifusion protocols are indicated in each figure. Perfusate samples were collected every minute, and C-PEPTIDE protein levels (units in ng/ml) detected by a C-PEPTIDE ELISA (Mercodia, Uppsala, Sweden, Catalog No. 10-1136-01).
On to “Exendin-4: insulin secretagogue, 100 ng/ml in perifusion buffer (Sigma-Aldrich E7144)”, for which the “amplitude of the GSIS response” value is given as “did not increase the amplitude of the GSIS response”.

The subject of another assay is INHBB.
Assay: not given
Conditions: S7D7 ALI clusters; 10 μM ALK5 inhibitor II in Stage 7; FIG. 3A.
Consider `Cc1cccc(-c2n[nH]cc2-c2ccc3ncccc3n2)n1` [ALK5 inhibitor II, 2-(3-(6-Methylpyridin-2-yl)-1H-pyrazol-4-yl)-1,5-naphthyridine], for which the “INHBB expression relative to human islets” value is recorded as “enriched above the expression seen in human islets”.

Another assay deals with MAFA. The assay is described as follows: Small molecule screen: qRT-PCR of MAFA expression at Stage 7 in H1-hESC-derived ALI clusters. Type of assay: cell-based, human. Conditions: Stage 7 no ALK5, low T3, ZM, H, NAC, FI, BLAR001; 5 μM AZT; 1 μM or 10 μM DEZA; S7D7 ALI clusters; FIG. 2A. Background: In qPCR the cycle at which signal appears reflects the starting amount.
On to `Nc1nccc2c1ncn2[C@@H]1C=C(CO)[C@@H](O)[C@H]1O` [3-Deazaneplanocin A], for which the “MAFA up-regulation during Stage 7” value is given as “effective up-regulator of MAFA”.

The record behind these values is patent US10633635B2, “Methods for production of functional beta cells” (Janssen Biotech, Inc., priority 2016, dated 2020).
